From ChEMBL document CHEMBL1201862, “PubChem BioAssay data set” (2004)
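In this assay, cells in 96-well plates receive the compound at five concentrations for 48 hours. Endpoints are linearly interpolated between the surrounding concentrations. GI50 = concentration required for 50% inhibition of growth.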 Activity calls are given as the source filed them. Cut-off read from the data, not from the text of the source: active = GI50 up to about 1.1 µM and inactive = higher.

Columns and labels:
Experiment in all cases: inhibition of tumour cell growth, NCI panel, 48 h
SK-OV-3 = system: SK-OV-3
SW-620 = system: SW-620
HOP-62 = system: HOP-62
COLO 205 = system: COLO 205
TK-10 = system: TK-10
HCT-116 = system: HCT-116
T47D = system: T47D
UACC-257 = system: UACC-257
HOP-92 = system: HOP-92
OVCAR-8 = system: OVCAR-8
OVCAR-5 = system: OVCAR-5
RXF 393 = system: RXF 393
NCI-H460 = system: NCI-H460
UO-31 = system: UO-31
U-251 = system: U-251
KM12 = system: KM12
K562 = system: K562
A549 = system: A549
IGROV-1 = system: IGROV-1
NCI/ADR-RES = system: NCI/ADR-RES

Compound	GI50 (SK-OV-3)	GI50 (SW-620)	GI50 (HOP-62)	GI50 (COLO 205)	GI50 (TK-10)	GI50 (HCT-116)	GI50 (T47D)	GI50 (UACC-257)	GI50 (HOP-92)	GI50 (OVCAR-8)	GI50 (OVCAR-5)	GI50 (RXF 393)	GI50 (NCI-H460)	GI50 (UO-31)	GI50 (U-251)	GI50 (KM12)	GI50 (K562)	GI50 (A549)	GI50 (IGROV-1)	GI50 (NCI/ADR-RES)
CCOC(=O)c1c(CN2CCNCC2)nc2ccc(Cl)cc2c1-c1ccccc1	6.93 µM (inactive)	2.03 µM (inactive)	6.95 µM (inactive)	2.03 µM (inactive)	5.07 µM (inactive)	3.07 µM (inactive)	4.82 µM (inactive)	1.81 µM (inactive)	1.17 µM (inactive)	4.21 µM (inactive)	19.5 µM (inactive)	2.58 µM (inactive)	2.48 µM (inactive)	3.32 µM (inactive)	12.9 µM (inactive)	3.44 µM (inactive)	2.14 µM (inactive)	5.31 µM (inactive)	5 µM (inactive)	
O=C1C=CC(=O)c2c1ccc1c3ccccc3n(Cc3ccc([N+](=O)[O-])cc3)c21	> 100 µM (inactive)	38.7 µM (inactive)	> 100 µM (inactive)	> 100 µM (inactive)	> 100 µM (inactive)	> 100 µM (inactive)	52.8 µM (inactive)	> 100 µM (inactive)		> 100 µM (inactive)		> 100 µM (inactive)	> 100 µM (inactive)	> 100 µM (inactive)	> 100 µM (inactive)	> 100 µM (inactive)	19.7 µM (inactive)	> 100 µM (inactive)	> 100 µM (inactive)	> 100 µM (inactive)
CC(=O)Oc1ccc2cc(Oc3ccccc3)c(=O)oc2c1		> 100 µM (inactive)	89.1 µM (inactive)		64.6 µM (inactive)	> 100 µM (inactive)	36.1 µM (inactive)	> 100 µM (inactive)	62.7 µM (inactive)	80.9 µM (inactive)	> 100 µM (inactive)	> 100 µM (inactive)	90.8 µM (inactive)	61 µM (inactive)	69.7 µM (inactive)	> 100 µM (inactive)		48.2 µM (inactive)	> 100 µM (inactive)	
CCc1ccc2c(c1)/C(=C1/Nc3ccccc3/C1=N/O)C(=O)N2	2.44 µM (inactive)	4.53 µM (inactive)	10.6 µM (inactive)	8.83 µM (inactive)	11.5 µM (inactive)	3.27 µM (inactive)	6.28 µM (inactive)	15.2 µM (inactive)		6.55 µM (inactive)	18.6 µM (inactive)	2.81 µM (inactive)	5.11 µM (inactive)	4.12 µM (inactive)	9.31 µM (inactive)	0.117 µM (active)	4.5 µM (inactive)	6.37 µM (inactive)	5.08 µM (inactive)	6.84 µM (inactive)
CC1OC(n2cc(F)c(=O)[nH]c2=O)C(O[Si](C)(C)C(C)(C)C)C1O[Si](C)(C)C(C)(C)C (stereo unspecified)	14.7 µM (inactive)	15 µM (inactive)	21.5 µM (inactive)	14.4 µM (inactive)	10.7 µM (inactive)	13.9 µM (inactive)	10.2 µM (inactive)	17.7 µM (inactive)		14.7 µM (inactive)	15.2 µM (inactive)	14 µM (inactive)		12.8 µM (inactive)	13.9 µM (inactive)	11.9 µM (inactive)	15.4 µM (inactive)	15.8 µM (inactive)	13.3 µM (inactive)	12.7 µM (inactive)
Cc1cc(C#N)c[n+](C)c1	> 100 µM (inactive)	> 100 µM (inactive)	> 100 µM (inactive)	> 100 µM (inactive)	> 100 µM (inactive)	> 100 µM (inactive)	> 100 µM (inactive)	> 100 µM (inactive)		> 100 µM (inactive)	> 100 µM (inactive)	> 100 µM (inactive)	> 100 µM (inactive)	> 100 µM (inactive)	> 100 µM (inactive)	> 100 µM (inactive)	> 100 µM (inactive)	> 100 µM (inactive)	> 100 µM (inactive)	> 100 µM (inactive)
COC(=O)C1CCC(=O)N1C(c1cc(OC)c(OC)c(OC)c1)c1cc(OC)c(OC)c(OC)c1 (stereo unspecified)	> 100 µM (inactive)	> 100 µM (inactive)	> 100 µM (inactive)		> 100 µM (inactive)	> 100 µM (inactive)	> 100 µM (inactive)	> 100 µM (inactive)	> 100 µM (inactive)	> 100 µM (inactive)	> 100 µM (inactive)		> 100 µM (inactive)	> 100 µM (inactive)	> 100 µM (inactive)	> 100 µM (inactive)	> 100 µM (inactive)	> 100 µM (inactive)	94.6 µM (inactive)	
COc1ccc(CN/C=N/C(C#N)=C(\N)C#N)cc1OC	> 100 µM (inactive)	> 100 µM (inactive)	> 100 µM (inactive)	> 100 µM (inactive)	> 100 µM (inactive)	> 100 µM (inactive)	83.6 µM (inactive)	> 100 µM (inactive)		> 100 µM (inactive)	> 100 µM (inactive)		> 100 µM (inactive)	65 µM (inactive)	> 100 µM (inactive)	> 100 µM (inactive)	> 100 µM (inactive)	> 100 µM (inactive)	> 100 µM (inactive)	> 100 µM (inactive)
CCOC(=O)c1[nH]c2nc(SC)nc(NC)c2c1N	> 100 µM (inactive)	> 100 µM (inactive)	> 100 µM (inactive)	> 100 µM (inactive)	> 100 µM (inactive)	> 100 µM (inactive)	83.8 µM (inactive)	> 100 µM (inactive)		> 100 µM (inactive)	> 100 µM (inactive)	> 100 µM (inactive)	60.4 µM (inactive)	> 100 µM (inactive)	> 100 µM (inactive)	> 100 µM (inactive)	90.2 µM (inactive)	> 100 µM (inactive)	> 100 µM (inactive)	59.6 µM (inactive)
O=C(Nc1ccccc1)c1nn(-c2cc(S(=O)(=O)O)c([N+](=O)[O-])cc2Cl)[n+](-c2cc(S(=O)(=O)[O-])c([N+](=O)[O-])cc2Cl)n1	> 100 µM (inactive)	> 100 µM (inactive)	> 100 µM (inactive)	> 100 µM (inactive)	> 100 µM (inactive)	> 100 µM (inactive)	> 100 µM (inactive)	> 100 µM (inactive)			> 100 µM (inactive)	> 100 µM (inactive)	> 100 µM (inactive)	> 100 µM (inactive)	> 100 µM (inactive)	> 100 µM (inactive)	> 100 µM (inactive)	> 100 µM (inactive)	> 100 µM (inactive)	> 100 µM (inactive)
CC(C)C1=CC23CCC4C(C)(C(=O)O)CCCC4(C)C2CC1C1C(=O)N(c2cccc(N4C(=O)C5C6CC7C8(C)CCCC(C)(C(=O)O)C8CCC7(C=C6C(C)C)C5C4=O)c2)C(=O)C13 (stereo unspecified)		16.3 µM (inactive)	12 µM (inactive)	10.6 µM (inactive)	15.9 µM (inactive)	9.57 µM (inactive)	16.8 µM (inactive)		23.4 µM (inactive)	8.61 µM (inactive)	7.74 µM (inactive)	12.6 µM (inactive)		14.8 µM (inactive)	3.24 µM (inactive)	2.75 µM (inactive)	7.87 µM (inactive)	14.7 µM (inactive)		
